Tests used:
Assay in all cases: Kinase inhibitor library screening, PrestoBlue cell viability, 1 or 10 μM, 72 h
[1] = system: 501Mel-GP cells (Dabrafenib-resistant); settings: 72 h; for viability at 1 µM / viability at 10 µM: Homo sapiens; for viability at 1 µM: read-out: cell viability, 501Mel GP, 1μΜ; for viability at 10 µM: read-out: cell viability, 501Mel GP, 10μΜ
Protocol: (§1) After 72 h of treatment, cell viability was assessed using the PrestoBlue Cell Viability Reagent (ThermoFisher Scientific). Measurements were performed with the CLARIOstar Monochromator microplate reader (BMG Labtech).
(§2) Kinase inhibitor library screening. […] Each cell line was treated in its sensitive form (parental), and also as 2 resistant derivatives, which were made resistant to either Vemurafenib (XP) or Dabrafenib (GP). Drugs were added at 2 different concentrations, 1 and 10 μM, for 72 h and cell viability was assessed using the PrestoBlue Cell Viability assay. Results are depicted as % viability compared to untreated cells. Each cell line was analyzed at least in duplicate. […] (XLSX 95 kb)

[2] = system: IGR37-GP cells (Dabrafenib-resistant); settings: for viability at 1 µM / viability at 10 µM: Homo sapiens, IGR-37, 72 h; for viability at 1 µM: read-out: cell viability, IGR37 GP, 1μΜ; for viability at 10 µM: read-out: cell viability, IGR37 GP, 10μΜ
Protocol: as §1, §2

[3] = system: A375-GP cells (Dabrafenib-resistant); settings: for viability at 1 µM / viability at 10 µM: Homo sapiens, A-375, 72 h; for viability at 1 µM: read-out: cell viability, A375 GP, 1μΜ; for viability at 10 µM: read-out: cell viability, A375 GP, 10μΜ
Protocol: as §1, §2

IGR37 cells (parental) = settings: for viability at 1 µM / viability at 10 µM: Homo sapiens, IGR-37, 72 h; for viability at 1 µM: read-out: cell viability, IGR37 Parental, 1μΜ; for viability at 10 µM: read-out: cell viability, IGR37 Parental, 10μΜ
Protocol: as §1, §2

[4] = system: A375-XP cells (Vemurafenib-resistant); settings: for viability at 1 µM / viability at 10 µM: Homo sapiens, A-375, 72 h; for viability at 1 µM: read-out: cell viability, A375 XP, 1μΜ; for viability at 10 µM: read-out: cell viability, A375 XP, 10μΜ
Protocol: as §1, §2

[5] = system: 501Mel-XP cells (Vemurafenib-resistant); settings: 72 h; for viability at 1 µM / viability at 10 µM: Homo sapiens; for viability at 1 µM: read-out: cell viability, 501Mel XP, 1μΜ; for viability at 10 µM: read-out: cell viability, 501Mel XP, 10μΜ
Protocol: as §1, §2

[6] = system: IGR37-XP cells (Vemurafenib-resistant); settings: for viability at 1 µM / viability at 10 µM: Homo sapiens, IGR-37, 72 h; for viability at 1 µM: read-out: cell viability, IGR37 XP, 1μΜ; for viability at 10 µM: read-out: cell viability, IGR37 XP, 10μΜ
Protocol: as §1, §2

501Mel cells (parental) = settings: 72 h; for viability at 1 µM / viability at 10 µM: Homo sapiens; for viability at 1 µM: read-out: cell viability, 501Mel Parental, 1μΜ; for viability at 10 µM: read-out: cell viability, 501Mel Parental, 10μΜ
Protocol: as §1, §2

A375 cells (parental) = settings: for viability at 1 µM / viability at 10 µM: Homo sapiens, A-375, 72 h; for viability at 1 µM: read-out: cell viability, A375 Parental, 1μΜ; for viability at 10 µM: read-out: cell viability, A375 Parental, 10μΜ
Protocol: as §1, §2

| Compound | viability at 1 µM [1] [%] | viability at 10 µM [1] [%] | viability at 1 µM [2] [%] | viability at 10 µM [2] [%] | viability at 1 µM [3] [%] | viability at 10 µM [3] [%] | viability at 1 µM (IGR37 cells (parental)) [%] | viability at 10 µM (IGR37 cells (parental)) [%] | viability at 1 µM [4] [%] | viability at 10 µM [4] [%] | viability at 1 µM [5] [%] | viability at 10 µM [5] [%] | viability at 1 µM [6] [%] | viability at 10 µM [6] [%] | viability at 1 µM (501Mel cells (parental)) [%] | viability at 10 µM (501Mel cells (parental)) [%] | viability at 1 µM (A375 cells (parental)) [%] | viability at 10 µM (A375 cells (parental)) [%] | other results |
| --- | --- | --- | --- | --- | --- | --- | --- | --- | --- | --- | --- | --- | --- | --- | --- | --- | --- | --- | --- |
| Cn1cnc2c(F)c(Nc3ccc(Br)cc3Cl)c(C(=O)NOCCO)cc21 [AZD6244 (Selumetinib)] | 96.9 | 73.6 | 92 | 62.7 | 29.4 | 17.8 | 40.2 | 36.6 | 42.3 | 15 | 81.2 | 58.1 | 83.3 | 42.2 | 61.6 | 60.6 | 21.3 | 18.6 |  |
| COc1ccc(-c2ccc3c(N4CCOC[C@@H]4C)nc(N4CCOC[C@@H]4C)nc3n2)cc1CO [AZD8055] |  |  |  |  |  |  |  |  |  |  |  |  |  |  |  |  |  |  | Cell viability in kinase inhibitor library screening, 501Mel GP, 1μΜ ([1]; 501Mel GP, 1μΜ, in %): 22.1; Cell viability in kinase inhibitor library screening, 501Mel GP, 10μΜ ([1]; 501Mel GP, 10μΜ, in %): 11.9; Cell viability in kinase inhibitor library screening, IGR37 GP, 10μΜ ([2]; IGR37 GP, 10μΜ, 72 h): 29.5%; Cell viability in kinase inhibitor library screening, IGR37 GP, 1μΜ ([2]; IGR37 GP, 1μΜ, 72 h, in %): 45.1; Cell viability in kinase inhibitor library screening, A375 GP, 1μΜ ([3]; A375 GP, 1μΜ, 72 h): 25.5; Cell viability in kinase inhibitor library screening, A375 GP, 10μΜ ([3]; A375 GP, 10μΜ, 72 h): 16.6; Cell viability in kinase inhibitor library screening, IGR37 Parental, 1μΜ (IGR37 cells (parental); IGR37 Parental, 1μΜ, 72 h, in %): 29.8; Cell viability in kinase inhibitor library screening, IGR37 Parental, 10μΜ (IGR37 cells (parental); IGR37 Parental, 10μΜ, 72 h, in %): 25.2; Cell viability in kinase inhibitor library screening, A375 XP, 1μΜ ([4]; A375 XP, 1μΜ, 72 h): 21.6; Cell viability in kinase inhibitor library screening, A375 XP, 10μΜ ([4]; A375 XP, 10μΜ, 72 h): 17.3; Cell viability in kinase inhibitor library screening, 501Mel XP, 1μΜ ([5]; 501Mel XP, 1μΜ, in %): 13.9; Cell viability in kinase inhibitor library screening, 501Mel XP, 10μΜ ([5]; 501Mel XP, 10μΜ, in %): 4.6; Cell viability in kinase inhibitor library screening, IGR37 XP, 10μΜ ([6]; IGR37 XP, 10μΜ, 72 h): 12.5%; Cell viability in kinase inhibitor library screening, IGR37 XP, 1μΜ ([6]; IGR37 XP, 1μΜ, 72 h, in %): 34.7; Cell viability in kinase inhibitor library screening, 501Mel Parental, 1μΜ (501Mel cells (parental); 501Mel Parental, 1μΜ, in %): 17.3; Cell viability in kinase inhibitor library screening, 501Mel Parental, 10μΜ (501Mel cells (parental); 501Mel Parental, 10μΜ, in %): 8.1; Cell viability in kinase inhibitor library screening, A375 Parental, 10μΜ (A375 cells (parental); A375 Parental, 10μΜ, 72 h): 19.2; Cell viability in kinase inhibitor library screening, A375 Parental, 1μΜ (A375 cells (parental); A375 Parental, 1μΜ, 72 h): 23.1 |
| CNC(=O)CN1CCC(Oc2cc3c(Nc4cccc(Cl)c4F)ncnc3cc2OC)CC1 [AZD8931] | 100 | 79.7 | 90.4 | 78 | 103 | 74.8 | 96.3 | 98.9 | 96.5 | 86 | 94.5 | 68.3 | 71.9 | 50 | 90.5 | 86 | 96.7 | 83.8 |  |
| CN(C)C/C=C/C(=O)Nc1cc2c(Nc3ccc(F)c(Cl)c3)ncnc2cc1O[C@H]1CCOC1 [Afatinib (BIBW2992)] | 98.8 | 6.2 | 96.9 | 20.9 | 94.1 | 12.6 | 103 | 44.5 | 102 | 4.1 | 88.6 | -0.4 | 94.7 | 10 | 102 | 1.5 | 100 | 13.6 |  |

Source: publication PMC6364417, “Kinase inhibitor library screening identifies synergistic drug combinations effective in sensitive and resistant melanoma cells” (Journal of Experimental & Clinical Cancer Research : CR, 2019)
